According to patent publication US20050203079A1, “Compounds having affinity at 5ht2C receptor and use thereof in therapy” (GLAXO GROUP LIMITED, priority 2002, published 2005):
Where a name gives a salt, the structure may show the parent alone.

Q: Which melting point does the source give for `COc1ccc(N2CC=C(c3cccc(Cl)c3)C2=O)cc1OCCN1CCC(C)CC1.Cl` here?
A: The melting point was 99 to 101 °C.

Q: With `COc1ccc(N2CC=C(c3ccc(F)cc3)C2=O)cc1OCCN1CCCCC1` (as salt: hydrochloride) as the compound, how does the melting point read?
A: The melting point was 207 to 209 °C.
